The values below come from US5059597A, “7-(4-oxa or 4-thia-2,7-diazabicyclo[3.3.0]oct-2-en-3-yl)-3-quinolone-and-naphthyrido ne-carboxylic acid derivatives as antibacterial agents and feed additives” (Bayer Aktiengesellschaft, priority 1988, dated 1991).

One data set is described as follows: Solubility in water. The settings on record: mesylate salt. The class given is physicochemical.
In data set [1] the test system is Staphylococcus aureus 133. The data set can be described thus: MIC, agar dilution test (Denley multipoint inoculator; Iso-sensitest agar). Format: cell-based. The note with it: Staphylococcus aureus 133; 37° C., about 20 hours, about 10^4 colony-forming particles; read-out: MIC values. The protocol: (§1) The minimum inhibitory concentrations (MIC) were determined by the series dilution method on Iso-Sensitest agar (Oxoid). For each test substance, a series of agar plates which contained concentrations of the active compound which decreased by a dilution factor of two each time was prepared. The agar plates were inoculated with a multipoint inoculator (Denley). Overnight cultures of the pathogens which had first been diluted so that each inoculation point contained about 10^4 colony-forming particles were used for the inoculation. The inoculated agar plates were incubated at 37° C. and the germ growth was read off after about 20 hours. The MIC value (μg/ml) indicates the lowest active compound concentration at which no germ growth was to be detected with the naked eye.
(§2) The MIC values of some of the compounds according to the invention are shown in comparison with ciprofloxacin in the following table.
(§3) MIC values (mg/l) determined by the agar dilution
(§4) test (Denley multipoint inoculator; Iso-sensitest agar)

Another data set relates to Escherichia coli Neumann. The data set is described as above. The class given is cell-based. The note with it: 37° C., about 20 hours, about 10^4 colony-forming particles. The procedure: as §1, §2, §3, §4
The next data set relates to Morganella morganii 932. Described as above. The settings on record: 37° C., about 20 hours, about 10^4 colony-forming particles. Format: cell-based. The protocol: as §1, §2, §3, §4
Data set [2] relates to Enterococcus faecalis 27101. The description is as above. The note with it: Enterococcus faecalis 27101; 37° C., about 20 hours, about 10^4 colony-forming particles; read-out: MIC values. Format: cell-based. The procedure:
as §1, §2, §3, §4

Data set [3] deals with Staphylococcus aureus FK 422. The data set is described as above. Format: cell-based. The settings on record: FK422; Staphylococcus aureus FK 422; 37° C., about 20 hours, about 10^4 colony-forming particles; read-out: MIC values. The protocol:
as §1, §2, §3, §4

The test system of another data set is Proleus vulgaris 1017. Described as above. The class given is cell-based. The note with it: 37° C., about 20 hours, about 10^4 colony-forming particles. The protocol:
as §1, §2, §3, §4

The test system of data set [4] is Providencia stuartei 12052. Described as above. The class given is cell-based. The settings on record: 37° C., about 20 hours, about 10^4 colony-forming particles. The procedure: as §1, §2, §3, §4
In data set [5] the test system is Staphylococcus aureus 1756. Described as above. Format: cell-based. The settings on record: Staphylococcus aureus 1756; 37° C., about 20 hours, about 10^4 colony-forming particles; read-out: MIC values. The procedure: as §1, §2, §3, §4
The subject of the next data set is Proleus mirabilis 8223. The data set is described as above. The note with it: 37° C., about 20 hours, about 10^4 colony-forming particles. Format: cell-based. The protocol:
as §1, §2, §3, §4

The subject of data set [6] is Enterococcus faecalis 9790. The description is as above. The class given is cell-based. The note with it: Enterococcus faecalis 9790; 37° C., about 20 hours, about 10^4 colony-forming particles; read-out: MIC values. The procedure:
as §1, §2, §3, §4

The structures appear in SMILES notation. ≈ marks a conversion by molar mass, not a printed value.

With `CS(=O)(=O)O.O=C(O)c1cn(C2CC2)c2c(F)c(N3CC4CCCNC4C3)c(F)cc2c1=O` (stereo not drawn) [Example 43A, 1-cyclopropyl-7-(2,8-diazabicyclo[4.3.0]non-8-yl)-6,8-difluoro-1,4-dihydro-4-oxo-3-quinolinecarboxylic acid mesylate], the solubility in water entry in the data set “Solubility in water” was “readily soluble in water”.

Turning to `CN1CCOC2CN(c3cc4c(cc3F)c(=O)c(C(=O)O)cn4C3CC3)CC21` (stereo not drawn) [Example 10, 1-cyclopropyl-6-fluoro-1,4-dihydro-7-(5-methyl-2-oxa-5,8-diazabicyclo[4.3.0]non-8-yl)-4-oxo-3-quinolinecarboxylic acid], the MIC in data set [1] came to 0.125 µg/mL (≈ 0.323 µM); in the data set on Escherichia coli Neumann, 0.125 µg/mL (≈ 0.323 µM); in the data set with Morganella morganii 932 it was 0.5 µg/mL (≈ 1.29 µM); in data set [2], 2 µg/mL (≈ 5.16 µM); in data set [3] it was 0.125 µg/mL (≈ 0.323 µM); against Proleus vulgaris 1017 it was 1 µg/mL (≈ 2.58 µM). Besides, the MIC amounted to 64 µg/mL (≈ 165 µM) in data set [4], 0.125 µg/mL (≈ 0.323 µM) in data set [5], 16 µg/mL (≈ 41.3 µM) against Proleus mirabilis 8223 and 2 µg/mL (≈ 5.16 µM) in data set [6].

`CN1CCCC2CN(c3cc4c(cc3F)c(=O)c(C(=O)O)cn4C3CC3)CC21` (stereo not drawn) [Example 14, 1-cyclopropyl-6-fluoro-1,4-dihydro-7-(2-methyl-2,8-diazabicyclo[4.3.0]non-8-yl)-4-oxo-3-quinolinecarboxylic acid]: the MIC is 0.25 µg/mL (≈ 0.649 µM) in data set [1]; 0.06 µg/mL (≈ 0.156 µM) against Escherichia coli Neumann; 0.25 µg/mL (≈ 0.649 µM) with Morganella morganii 932; 0.25 µg/mL (≈ 0.649 µM) in data set [2]; 0.25 µg/mL (≈ 0.649 µM) in data set [3]; 0.5 µg/mL (≈ 1.3 µM) in the data set with Proleus vulgaris 1017. For the same compound, the MIC in data set [4] came to 4 µg/mL (≈ 10.4 µM); in data set [5], 0.25 µg/mL (≈ 0.649 µM); against Proleus mirabilis 8223, 4 µg/mL (≈ 10.4 µM); in data set [6], 0.5 µg/mL (≈ 1.3 µM).
